Experimental data reported in PubChem BioAssay (NCI).
Where “and” joins values, the source holds several entries; their conditions need not be identical. Identical values can stand only once.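 How tested: cells in 96-well plates exposed to compound for 48 hours at five concentrations. Abbreviation: GI50, concentration required for 50% inhibition of growth. TGI: total growth inhibition.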 Where a SMILES comes first, the peptide text is derived from it. The star is where a group is joined. Fmoc = O=C(OCC1c2ccccc2-c2ccccc21)*; Boc = CC(C)(C)OC(=O)*; OtBu = CC(C)(C)O*

Tests used:
Assay in all cases: growth of human tumour cells (NCI), 48 h
[1] = tested on: NCI-H522 lung
[2] = tested on: OVCAR-4 ovarian
[3] = tested on: HOP-92 NSCLC
[4] = tested on: MALME-3M melanoma
[5] = tested on: HS 578T breast
[6] = tested on: NCI-H460 lung
[7] = tested on: HT29 colon
[8] = tested on: LOX IMVI melanoma
[9] = tested on: SK-MEL-5 melanoma
[10] = tested on: SNB-19 CNS
[11] = tested on: IGROV1 ovarian
[12] = tested on: KM12 colon
[13] = tested on: CCRF-CEM leukemia
[14] = tested on: MDA-N
[15] = tested on: NCI/ADR-RES ovarian
[16] = tested on: HL-60(TB) leukemia
[17] = tested on: RPMI-8226 leukemia
[18] = tested on: PC-3 prostate
[19] = tested on: TK-10 renal
[20] = tested on: HOP-62 NSCLC
[21] = tested on: UACC-62 melanoma
[22] = tested on: SR leukemia
[23] = tested on: MCF7 breast
[24] = tested on: SK-OV-3 ovarian
[25] = tested on: SF-539 CNS
[26] = tested on: K-562 leukemia
[27] = tested on: SK-MEL-28 melanoma
[28] = tested on: MOLT-4 leukemia
[29] = tested on: SN12C renal
[30] = tested on: A549 NSCLC
[31] = tested on: BT-549 breast
[32] = tested on: OVCAR-8 ovarian
[33] = tested on: MDA-MB-435
[34] = tested on: SK-MEL-2 melanoma
[35] = tested on: T-47D breast
[36] = tested on: RXF 393 renal
[37] = tested on: HCT-15 colon
[38] = tested on: SW-620 colon
[39] = tested on: UACC-257 melanoma
[40] = tested on: OVCAR-3 ovarian
[41] = tested on: UO-31 renal
[42] = tested on: SF-268 CNS
[43] = tested on: SF-295 CNS
[44] = tested on: ACHN renal
[45] = tested on: EKVX NSCLC
[46] = tested on: M14 melanoma
[47] = tested on: HCT-116 colon
[48] = tested on: COLO 205 colon
[49] = tested on: MDA-MB-231 breast
[50] = tested on: NCI-H23 lung
[51] = tested on: HCC-2998 colon
[52] = tested on: SNB-75 CNS
[53] = tested on: DU-145 prostate
[54] = tested on: NCI-H226 lung
[55] = tested on: 786-0 renal
[56] = tested on: U251 CNS
[57] = tested on: OVCAR-5 ovarian
[58] = tested on: CAKI-1 renal
[59] = tested on: A498 renal

Q: For `CC(C)(C)OC(=O)CCC(NC(=O)OCC1c2ccccc2-c2ccccc21)C(=O)NC(Cc1c[nH]c2ccccc12)C(=O)NC(CCCCNC(=O)OC(C)(C)C)C(=O)N1CCCC1C(=O)NCC(N)=O` (stereo not given) (Fmoc-E(OtBu)WK(Boc)PG-NH2; configuration not given here), which TGI [1] is on record?
A: 4.16 µM

Q: What about the TGI [2] of the same compound?
A: 25.5 µM and 31.2 µM

Q: What about the TGI [3] of the same compound?
A: 31.4 µM and 35.7 µM

Q: And the TGI [4]?
A: 33.9 µM and 78.9 µM

Q: What about the TGI [5] of the same compound?
A: 59.3 µM and 76.1 µM

Q: What about the TGI [6] of the same compound?
A: 30.4 µM and 68.9 µM

Q: What about the TGI [7] of the same compound?
A: > 100 µM

Q: And the TGI [8]?
A: 24.5 µM and 44.7 µM

Q: And the TGI [9]?
A: 29.7 µM and > 100 µM

Q: What about the TGI [10] of the same compound?
A: 72.9 µM and 40.6 µM

Q: What about the TGI [11] of the same compound?
A: 29.5 µM and > 100 µM

Q: What about the GI50 [12] of the same compound?
A: 16.2 µM and 35.9 µM

Q: And the TGI [12]?
A: 33.1 µM and > 100 µM

Q: And the GI50 [13]?
A: 67.3 µM and 31.5 µM

Q: And the TGI [13]?
A: > 100 µM and 73.7 µM

Q: What about the TGI [14] of the same compound?
A: 31.6 µM and > 100 µM

Q: What about the GI50 [15] of the same compound?
A: 16.9 µM and 68.5 µM

Q: What about the TGI [15] of the same compound?
A: 30.6 µM and > 100 µM

Q: And the GI50 [16]?
A: 3.8 µM and 33.5 µM

Q: What about the TGI [16] of the same compound?
A: > 100 µM

Q: And the TGI [17]?
A: 35.6 µM and > 100 µM

Q: What about the GI50 [18] of the same compound?
A: 16.4 µM and > 100 µM

Q: And the TGI [18]?
A: 29.9 µM and > 100 µM

Q: And the GI50 [19]?
A: 36.5 µM and > 100 µM

Q: And the TGI [19]?
A: > 100 µM

Q: And the GI50 [20]?
A: 18 µM and 42.2 µM

Q: What about the TGI [20] of the same compound?
A: 31.8 µM and > 100 µM

Q: And the TGI [21]?
A: 28.2 µM and 39.9 µM

Q: And the TGI [22]?
A: 52.7 µM and > 100 µM

Q: And the TGI [23]?
A: > 100 µM

Q: And the TGI [24]?
A: > 100 µM and 93.9 µM

Q: And the TGI [25]?
A: > 100 µM

Q: And the TGI [26]?
A: > 100 µM

Q: What about the TGI [27] of the same compound?
A: > 100 µM

Q: What about the TGI [28] of the same compound?
A: 61.7 µM and 81.7 µM

Q: And the GI50 [29]?
A: 18.3 µM and 67.4 µM

Q: What about the TGI [29] of the same compound?
A: 32.2 µM and > 100 µM

Q: What about the GI50 [30] of the same compound?
A: 17.6 µM and > 100 µM

Q: What about the TGI [30] of the same compound?
A: 31.5 µM and > 100 µM

Q: And the TGI [31]?
A: 29.5 µM and 38.3 µM

Q: And the TGI [32]?
A: 33.4 µM and > 100 µM

Q: What about the GI50 [33] of the same compound?
A: 18 µM and 42.7 µM

Q: What about the TGI [33] of the same compound?
A: 31.9 µM and > 100 µM

Q: What about the TGI [34] of the same compound?
A: 39.2 µM and 33.5 µM

Q: And the TGI [35]?
A: > 100 µM

Q: And the TGI [36]?
A: 28.3 µM and 50.4 µM

Q: What about the GI50 [37] of the same compound?
A: 12.5 µM and 73.9 µM

Q: And the TGI [37]?
A: 24.9 µM and > 100 µM

Q: And the GI50 [38]?
A: 19 µM and 46.9 µM

Q: And the TGI [38]?
A: 33.6 µM and > 100 µM

Q: What about the GI50 [39] of the same compound?
A: 40.4 µM and 94.9 µM

Q: And the TGI [39]?
A: > 100 µM

Q: What about the TGI [40] of the same compound?
A: 37.4 µM and 51 µM

Q: And the GI50 [41]?
A: 3.85 µM and 14.4 µM

Q: And the TGI [41]?
A: 14.7 µM and 28.1 µM

Q: And the GI50 [42]?
A: 21.5 µM and 44.7 µM

Q: What about the TGI [42] of the same compound?
A: 37.2 µM and > 100 µM

Q: What about the TGI [43] of the same compound?
A: > 100 µM

Q: What about the TGI [44] of the same compound?
A: 30 µM and 35 µM

Q: And the GI50 [45]?
A: 17.9 µM and > 100 µM

Q: And the TGI [45]?
A: 34.8 µM and > 100 µM

Q: And the TGI [46]?
A: 90.5 µM and > 100 µM

Q: And the GI50 [47]?
A: 18.3 µM and 48.1 µM

Q: What about the TGI [47] of the same compound?
A: 32.2 µM and > 100 µM

Q: And the GI50 [48]?
A: 17.1 µM and 41.9 µM

Q: What about the TGI [48] of the same compound?
A: 32.7 µM and > 100 µM

Q: And the TGI [49]?
A: 25.2 µM and 28.9 µM

Q: What about the GI50 [50] of the same compound?
A: 14.2 µM and 32.7 µM

Q: And the TGI [50]?
A: 27.2 µM and > 100 µM

Q: And the TGI [51]?
A: > 100 µM

Q: What about the TGI [52] of the same compound?
A: 52.1 µM and 29.9 µM

Q: And the GI50 [53]?
A: 16.1 µM and > 100 µM

Q: What about the TGI [53] of the same compound?
A: 29.6 µM and > 100 µM

Q: What about the GI50 [54] of the same compound?
A: 15.3 µM and 78.8 µM

Q: And the TGI [54]?
A: 32.5 µM and > 100 µM

Q: And the TGI [55]?
A: 31.3 µM and 34.9 µM

Q: What about the TGI [56] of the same compound?
A: 31.1 µM and 31 µM

Q: And the GI50 [57]?
A: 45.6 µM and > 100 µM

Q: And the TGI [57]?
A: > 100 µM

Q: How did the TGI [1] turn out when `Cc1ccc(C2(C)CC/C(=N/N=C3/CCC(C)(c4ccc(C)c(C)c4)c4cc(C)c(C)cc43)c3cc(C)c(C)cc32)cc1C` (stereo not given) was run?
A: > 100 µM

Q: And the TGI [2]?
A: > 100 µM

Q: And the TGI [3]?
A: > 100 µM

Q: What about the TGI [4] of the same compound?
A: > 100 µM

Q: And the TGI [5]?
A: > 100 µM

Q: And the TGI [6]?
A: > 100 µM

Q: What about the TGI [7] of the same compound?
A: > 100 µM

Q: And the TGI [8]?
A: > 100 µM

Q: What about the TGI [9] of the same compound?
A: > 100 µM

Q: And the TGI [10]?
A: > 100 µM

Q: What about the TGI [11] of the same compound?
A: > 100 µM

Q: And the TGI [12]?
A: > 100 µM

Q: And the TGI [14]?
A: > 100 µM

Q: What about the TGI [15] of the same compound?
A: > 100 µM

Q: What about the TGI [16] of the same compound?
A: > 100 µM

Q: What about the TGI [17] of the same compound?
A: > 100 µM

Q: What about the TGI [18] of the same compound?
A: > 100 µM

Q: And the TGI [19]?
A: > 100 µM

Q: And the TGI [20]?
A: > 100 µM

Q: What about the TGI [21] of the same compound?
A: > 100 µM

Q: What about the TGI [22] of the same compound?
A: > 100 µM

Q: And the TGI [23]?
A: > 100 µM

Q: And the TGI [24]?
A: > 100 µM

Q: And the TGI [25]?
A: > 100 µM

Q: What about the TGI [26] of the same compound?
A: > 100 µM

Q: What about the TGI [27] of the same compound?
A: > 100 µM

Q: What about the TGI [58] of the same compound?
A: > 100 µM

Q: What about the TGI [28] of the same compound?
A: > 100 µM

Q: And the TGI [29]?
A: > 100 µM

Q: And the TGI [30]?
A: > 100 µM

Q: And the TGI [31]?
A: > 100 µM

Q: What about the TGI [32] of the same compound?
A: > 100 µM

Q: What about the TGI [33] of the same compound?
A: > 100 µM

Q: And the TGI [34]?
A: > 100 µM

Q: And the TGI [35]?
A: > 100 µM

Q: And the TGI [36]?
A: > 100 µM

Q: What about the TGI [37] of the same compound?
A: > 100 µM

Q: And the TGI [38]?
A: > 100 µM

Q: And the TGI [40]?
A: > 100 µM

Q: What about the TGI [59] of the same compound?
A: > 100 µM

Q: And the TGI [41]?
A: > 100 µM

Q: What about the TGI [42] of the same compound?
A: > 100 µM

Q: What about the TGI [43] of the same compound?
A: > 100 µM

Q: And the TGI [44]?
A: > 100 µM

Q: And the TGI [45]?
A: > 100 µM

Q: What about the TGI [46] of the same compound?
A: > 100 µM

Q: And the TGI [47]?
A: > 100 µM

Q: And the TGI [48]?
A: > 100 µM

Q: What about the TGI [49] of the same compound?
A: > 100 µM

Q: And the TGI [50]?
A: > 100 µM

Q: And the TGI [52]?
A: > 100 µM

Q: What about the TGI [53] of the same compound?
A: > 100 µM

Q: And the TGI [54]?
A: > 100 µM

Q: And the TGI [55]?
A: > 100 µM

Q: What about the TGI [56] of the same compound?
A: > 100 µM

Q: What about the TGI [57] of the same compound?
A: > 100 µM
